Target: Aβ42 (Homo sapiens, UniProt P05067)
Experiment: Th-T (thioflavin-T) assay of Aβ42 aggregation
Format: biochemical
Settings: for Th-T fluorescence, mean of three wells: compound at 50

Aβ42, sequence (P05067 672-713): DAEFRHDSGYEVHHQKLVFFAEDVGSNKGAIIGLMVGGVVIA

SMILES: C=C1CC[C@@H]2[C@](C)(CC[C@H]3O[C@H](C=C(C)C)C[C@@]23C)[C@@H]1Cc1c(OC)oc(CO)c(C(=O)OC)c1=O [Compound 21]
- Th-T fluorescence, mean of three wells (reading M54 of time course): 0.2222
- Th-T fluorescence, mean of three wells (reading M55 of time course): 0.2197
- Th-T fluorescence, mean of three wells (reading M56 of time course): 0.2209
- Th-T fluorescence, mean of three wells (reading M57 of time course): 0.2237
- Th-T fluorescence, mean of three wells (reading M58 of time course): 0.2252
- Th-T fluorescence, mean of three wells (reading M59 of time course): 0.2206
- Th-T fluorescence, mean of three wells (reading M60 of time course): 0.2276
- Th-T fluorescence, mean of three wells (reading M61 of time course): 0.2285
- Th-T fluorescence, mean of three wells (reading M62 of time course): 0.2296
- Th-T fluorescence of Aβ42 with compound, mean of three wells (Fig. 7a source data) (concentration 10, unit not given, time-course reading M129): 1.701
- Th-T fluorescence of Aβ42 with compound, mean of three wells (Fig. 7a source data) (concentration 10, unit not given, time-course reading M130): 1.706
- Th-T fluorescence of Aβ42 with compound, mean of three wells (Fig. 7a source data) (concentration 10, unit not given, time-course reading M131): 1.73
- Th-T fluorescence of Aβ42 with compound, mean of three wells (Fig. 7a source data) (concentration 10, unit not given, time-course reading M132): 1.6977
- Th-T fluorescence of Aβ42 with compound, mean of three wells (Fig. 7a source data) (concentration 10, unit not given, time-course reading M133): 1.7165
- Th-T fluorescence of Aβ42 with compound, mean of three wells (Fig. 7a source data) (concentration 10, unit not given, time-course reading M134): 1.726
- Th-T fluorescence of Aβ42 with compound, mean of three wells (Fig. 7a source data) (concentration 10, unit not given, time-course reading M135): 1.717
- Th-T fluorescence of Aβ42 with compound, mean of three wells (Fig. 7a source data) (concentration 10, unit not given, time-course reading M136): 1.738
- Th-T fluorescence of Aβ42 with compound, mean of three wells (Fig. 7a source data) (concentration 10, unit not given, time-course reading M137): 1.7043
- Th-T fluorescence of Aβ42 with compound, mean of three wells (Fig. 7a source data) (concentration 10, unit not given, time-course reading M138): 1.717
- Th-T fluorescence of Aβ42 with compound, mean of three wells (Fig. 7a source data) (concentration 10, unit not given, time-course reading M139): 1.708
- Th-T fluorescence of Aβ42 with compound, mean of three wells (Fig. 7a source data) (concentration 10, unit not given, time-course reading M140): 1.723
- Th-T fluorescence of Aβ42 with compound, mean of three wells (Fig. 7a source data) (concentration 10, unit not given, time-course reading M141): 1.719
- Th-T fluorescence of Aβ42 with compound, mean of three wells (Fig. 7a source data) (concentration 10, unit not given, time-course reading M142): 1.725
- Th-T fluorescence of Aβ42 with compound, mean of three wells (Fig. 7a source data) (concentration 10, unit not given, time-course reading M143): 1.723
- Th-T fluorescence of Aβ42 with compound, mean of three wells (Fig. 7a source data) (concentration 10, unit not given, time-course reading M144): 1.716
- Th-T fluorescence of Aβ42 with compound, mean of three wells (Fig. 7a source data) (concentration 10, unit not given, time-course reading M145): 1.741
- Th-T fluorescence of Aβ42 with compound, mean of three wells (Fig. 7a source data) (concentration 20, unit not given, time-course reading M129): 0.972
- Th-T fluorescence of Aβ42 with compound, mean of three wells (Fig. 7a source data) (concentration 20, unit not given, time-course reading M130): 0.9564
- Th-T fluorescence of Aβ42 with compound, mean of three wells (Fig. 7a source data) (concentration 20, unit not given, time-course reading M131): 0.9524
- Th-T fluorescence of Aβ42 with compound, mean of three wells (Fig. 7a source data) (concentration 20, unit not given, time-course reading M132): 0.9585
- Th-T fluorescence of Aβ42 with compound, mean of three wells (Fig. 7a source data) (concentration 20, unit not given, time-course reading M133): 0.9579
- Th-T fluorescence of Aβ42 with compound, mean of three wells (Fig. 7a source data) (concentration 20, unit not given, time-course reading M134): 0.9622
- Th-T fluorescence of Aβ42 with compound, mean of three wells (Fig. 7a source data) (concentration 20, unit not given, time-course reading M135): 0.9636
- Th-T fluorescence of Aβ42 with compound, mean of three wells (Fig. 7a source data) (concentration 20, unit not given, time-course reading M136): 0.9565
- Th-T fluorescence of Aβ42 with compound, mean of three wells (Fig. 7a source data) (concentration 20, unit not given, time-course reading M137): 0.947
- Th-T fluorescence of Aβ42 with compound, mean of three wells (Fig. 7a source data) (concentration 20, unit not given, time-course reading M138): 0.9539
- Th-T fluorescence of Aβ42 with compound, mean of three wells (Fig. 7a source data) (concentration 20, unit not given, time-course reading M139): 0.9666
- Th-T fluorescence of Aβ42 with compound, mean of three wells (Fig. 7a source data) (concentration 20, unit not given, time-course reading M140): 0.9636
- Th-T fluorescence of Aβ42 with compound, mean of three wells (Fig. 7a source data) (concentration 20, unit not given, time-course reading M141): 0.9513
- Th-T fluorescence of Aβ42 with compound, mean of three wells (Fig. 7a source data) (concentration 20, unit not given, time-course reading M142): 0.9675
- Th-T fluorescence of Aβ42 with compound, mean of three wells (Fig. 7a source data) (concentration 20, unit not given, time-course reading M143): 0.9558
- Th-T fluorescence of Aβ42 with compound, mean of three wells (Fig. 7a source data) (concentration 20, unit not given, time-course reading M144): 0.9694
- Th-T fluorescence of Aβ42 with compound, mean of three wells (Fig. 7a source data) (concentration 20, unit not given, time-course reading M145): 0.9486
- Th-T fluorescence of Aβ42 with compound, mean of three wells (Fig. 7a source data) (concentration 50, unit not given, time-course reading M129): 0.5005
- Th-T fluorescence of Aβ42 with compound, mean of three wells (Fig. 7a source data) (concentration 50, unit not given, time-course reading M130): 0.4954
- Th-T fluorescence of Aβ42 with compound, mean of three wells (Fig. 7a source data) (concentration 50, unit not given, time-course reading M131): 0.4987
- Th-T fluorescence of Aβ42 with compound, mean of three wells (Fig. 7a source data) (concentration 50, unit not given, time-course reading M132): 0.5011
- Th-T fluorescence of Aβ42 with compound, mean of three wells (Fig. 7a source data) (concentration 50, unit not given, time-course reading M133): 0.5033
- Th-T fluorescence of Aβ42 with compound, mean of three wells (Fig. 7a source data) (concentration 50, unit not given, time-course reading M134): 0.5026
- Th-T fluorescence of Aβ42 with compound, mean of three wells (Fig. 7a source data) (concentration 50, unit not given, time-course reading M135): 0.5014
- Th-T fluorescence of Aβ42 with compound, mean of three wells (Fig. 7a source data) (concentration 50, unit not given, time-course reading M136): 0.502
- Th-T fluorescence of Aβ42 with compound, mean of three wells (Fig. 7a source data) (concentration 50, unit not given, time-course reading M137): 0.5003
- Th-T fluorescence of Aβ42 with compound, mean of three wells (Fig. 7a source data) (concentration 50, unit not given, time-course reading M138): 0.5022
- Th-T fluorescence of Aβ42 with compound, mean of three wells (Fig. 7a source data) (concentration 50, unit not given, time-course reading M139): 0.5032
- Th-T fluorescence of Aβ42 with compound, mean of three wells (Fig. 7a source data) (concentration 50, unit not given, time-course reading M140): 0.5012
- Th-T fluorescence of Aβ42 with compound, mean of three wells (Fig. 7a source data) (concentration 50, unit not given, time-course reading M141): 0.504
- Th-T fluorescence of Aβ42 with compound, mean of three wells (Fig. 7a source data) (concentration 50, unit not given, time-course reading M142): 0.5037

Reference: article PMC7156458, “Synthetic biology based construction of biological activity-related library of fungal decalin-containing diterpenoid pyrones” (Nature Communications, 2020)
